# Assay results from paper PMC4726189, “Blocking protein phosphatase 2A signaling prevents endothelial-to-mesenchymal transition and renal fibrosis: a peptide-based drug therapy” (Scientific Reports, 2016).
# Assays:
# HUVECs [1] = test: TGF-β1-induced EndMT in HUVECs, western blot of VE-cadherin and α-SMA; format: cell-based, human; conditions: n ≥ 3
# Procedure: (§1) Human umbilical vein endothelial cells (HUVECs, ATCC) were cultured in RPMI-1640 (Gibco) supplemented with 10% fetal bovine serum (FBS, HyClone). When 30% confluent, cells were cultured in serum-free medium before recombinant human TGF-β1 (10 ng/ml; Peprotech) treatment. In some experiments, cells were pretreated with PP2A inhibitor OA (10 nM; Sigma) for 1 h before the addition of TGF-β1. For all cell stimulations, n ≥ 3 independent experiments were performed.
# Renal tissues or cells were harvested and centrifuged at 12,000 g to remove cell debris. Protein concentration was measured using a BCA assay kit (Pierce). Eighty micrograms of protein was subjected to SDS-PAGE and transferred onto polyvinylidene difluoride membranes. After transfer, the membranes were blocked and blotted routinely with antibodies against VE-cadherin (BD Biosciences), α-SMA (Abcam), collagen1 (Abcam), PP2Ac (Cell Signaling Technology), occludin (Invitrogen), P-threonine/P-serine (Santa Cruz), nitrotyrosine (Cayman), acetylated-lysine (Cell Signaling Technology), phosphotyrosine (PY-20,Biolgend), PP2A,C subunit, demethylated (Millipore), vimentin (Boster) and CD31 (Proteintech). The immunolabeled proteins were detected by enhanced chemiluminescence (Pierce).The density of the bands was analyzed by Quantity One software (Bio-Rad).
# occludin = test: Serine/threonine phosphorylation of occludin in immunoprecipitates from TGF-β1-treated HUVECs; format: cell-based, human; conditions: n ≥ 3
# Procedure: as §1
# Cell lysates were centrifuged at 12,000g for 30 min at 4 °C. Approximately 1 mg of each lysate was incubated overnight at 4 °C with 2 μg of anti-occludin, anti-PP2Ac or IgG antibody (a negative control), followed by incubation with Protein A/G-Agarose for 1 hr to capture immunoprecipitates. Bead complexes were washed four times in lysis buffer and then resuspended in 2 × SDS buffer and heated for 10 min at 90 °C. Lysates were electrophoresed, transferred to PVDF filters, and subsequently immunoblotted with antibodies.
# PP2A [2] = conditions: inhibition of PP2A by okadaic acid; cited from earlier work
# Text: The vast majority of biological processes, including renal fibrosis, are regulated by the balance between the activities of kinases and phosphatases. The significance of kinases has been intensively discussed in kidney disease for decades, however, the roles of phosphatases remain poorly understood. Protein phosphatase 2A (PP2A) is a ubiquitously expressed protein serine/threonine phosphatase that accounts for a large fraction of phosphatase activity in eukaryotic cells. As a heterotrimer, PP2A is composed of three subunits: a catalytic C subunit (PP2Ac), a structural A subunit (PP2Aa) ...
# HUVECs [3] = test: Cellular uptake of FITC-labeled peptide in HUVECs; format: cell-based, human; conditions: fluorescence, n=3
# Procedure: To further confirm the hypothesis, PP2Ac mimic peptides (Y127WT,Y130WT,Y265WT, Y267WT,Y284WT) were designed to assess the significance of Tyr127 and other Tyr sites on TGF-β1-driven EndMT. To enhance the penetration of synthetic peptides, a cell-permeable peptide transactivator of transcription (TAT) was used[20][21]. The conjugated peptide TAT-Y127WT was labeled with fluorescein isothiocyanate (FITC) and analyzed for cellular uptake. […] Thus, at the dose of 10 μM, we investigated the anti-EndMT effects of TAT-Y127WT compared with the other four peptides.
# (§2) Figure S2. The penetration and cytotoxicity of TAT-Y127WT to HUVECs.
# (§3) HUVECs were incubated with various concentrations (0,1,5,10,20,or 50μM) of TAT-Y127WT. Cytotoxicity was measured with the CCK-8 assay. (c)
# (§4) Immunofluorescence distribution of TAT-Y127WT and cell morphology. Nuclei were counterstained with DAPI (blue). n=3. Scale bars, 20μm.
# (§5) Supplementary Methods: Mass Spectrometry Experiments
# Protein Digestion-The protein bands were digested according to an in-gel digestion procedure. The gels were dried in a vacuum centrifuge. Briefly, the in-gel proteins were reduced with dithiothreitol (10 mM DTT/100 mM NH4HCO3 ) for 30 min at 56°C, then alkylated with iodoacetamide (200 mM IAA/100 mM NH4HCO3) in the dark at room temperature for 30 minutes. Gel pieces were briefly rinsed with 100 mM NH4HCO3 and ACN. […]
# HUVECs [4] = test: Cytotoxicity to HUVECs, CCK-8 assay; format: cell-based, human; conditions: approximately 5–10 μM (0, 1, 5, 10, 20 or 50 μM tested), n=3
# Procedure: as §2, §3, §4, §5
# Protein Digestion-The protein bands were digested according to an in-gel digestion procedure. The gels were dried in a vacuum centrifuge. Briefly, the in-gel proteins were reduced with dithiothreitol (10 mM DTT/100 mM NH4HCO3 ) for 30 min at 56°C, then alkylated with iodoacetamide (200 mM IAA/100 mM NH4HCO3) in the dark at room temperature for 30 minutes. Gel pieces were briefly rinsed with 100 mM NH4HCO3 and ACN. Gel pieces were digested overnight in 12.5 ng/μl trypsin in 25 mM NH4HCO3. The peptides were extracted three times with 60% ACN/0.1% TFA.
# The extracts were pooled and dried completely by a vacuum centrifuge.
# Identification of the Modification Sites-Experiments were performed on a Q Exactive mass spectrometer that was coupled to Easy nLC (Proxeon Biosystems, now Thermo Fisher Scientific). Approximately 3 μl of the sample was injected for nanoLC-MS/MS analysis. The peptide mixture (1 μg) was loaded onto the C18-reversed phase column
# (1 picture or pasted object on this page, not shown here)
# [5] = Whole-body and ex vivo organ fluorescence imaging of FITC-labeled peptide in mice; set-up: species or system C57/B mice
# Procedure: FITC-loaded peptides were injected through the tail vein or intraperitoneally administered into C57/B mice at a dose of 5 nmol/g of body weight. Whole body fluorescence imaging was performed using an in vivo imaging system (IVIS Spectrum, Caliper, USA) at 0, 0.5, 4 or 24 h post-injection. Subsequently, the mice were sacrificed, and their organs such as the liver, spleen, kidneys, heart, and lung were excised and subjected to ex vivo fluorescence imaging. At the same time, 1 mL of blood was drawn from the retro-orbital sinus after injection at different time points.
# Caco-2 Cells = conditions: cited from earlier work
# Text: (§6) Therefore, blocking PP2Ac Tyr127 nitration is considered a potential therapeutic approach. […] Peptide-based drugs have garnered much attention because of their high potencies of action and relatively few off-target side-effects[52][53].
# PP2A [6] = conditions: cited from earlier work
# Text: as §6
# [7] = OA 10 nM for 1 h before TGF-β1 10 ng/ml
# [8] = FITC-labeled peptide, tail vein injection, ex vivo organ imaging at different time points
# Procedure for UUO mice: Mice aged 6–8 weeks were grouped as sham-operated, UUO, UUO +TAT-Y127WT and UUO + TAT-Y127Scr and tail vein injected 1d before surgery. To perform UUO surgery, mice were anesthetized with ketamine hydrochloride (80 mg/kg body weight, intraperitoneally) before surgery and the left kidney was exposed through a flank incision and the left ureter tied off at the level of the lower pole of the kidney with two 4.0 silk ties. All mice were euthanized at the end of the experiments after obstruction, and some kidney tissues were fixed with 4% paraformaldehyde. The remainder was frozen in liquid nitrogen for later use.
# Four-micrometer-thick paraffin sections were incubated with primary antibodies overnight at 4 °C and were then incubated with biotinylated goat anti-rabbit IgG or goat anti-mouse IgG for 45 min followed by diaminobenzidine (DAKO) staining. All sections were examined under a light microscope (Olympus BX-50) and digitized with a high-resolution camera. For immunofluorescence studies, after incubated with primary antibody, sections (including serial sections) were incubated with FITC- or CY3-conjugated goat antibody (Jackson ImmunoResearch) for 45 min at 37 °C and then counterstained with DAPI (Vector Laboratories) and analyzed by confocal laser scanning microscopy. 3D reconstructed technology was based on confocal laser-scanning microscopy and analyzed by the software (LAS-AF-Lite 2.6.3). PTC density was analyzed as described with some modifications[56].
compound,measurement,setting,value
"C=C1[C@@H](O)[C@@H]2O[C@]3(CC[C@H](/C=C/[C@@H](C)[C@@H]4CC(C)=C[C@@]5(O[C@H](C[C@@](C)(O)C(=O)O)CC[C@H]5O)O4)O3)CC[C@H]2O[C@@H]1[C@@H](O)C[C@H](C)[C@H]1O[C@@]2(CCCCO2)CC[C@H]1C [OA, okadaic acid, reference compound]",VE-cadherin expression,HUVECs [1]; [7],maintained
same,α-SMA expression induced by TGF-β1,HUVECs [1]; [7],markedly attenuated
same,TGF-β1-induced decrease of phosphorylated serine and threonine residues in occludin immunoprecipitates,occludin; pretreatment with OA 10 nM for 1 h,significantly dampened
same,effect of PP2A on thrombin- or nocodazole-induced changes in EC cytoskeleton,PP2A [2],abolished
ITQVYGFYD [TAT-Y127WT],potency to inhibit TGF-β1-induced VE-cadherin decrease and α-SMA increase,"HUVECs [1]; peptide 10 μM, TGF-β1, 72 h, compared with the other four peptides",higher potency
same,increase of α-SMA,"HUVECs [1]; pretreatment with peptide, TGF-β1, 72 h",inhibited
same,serine and threonine phosphorylation of occludin,"occludin; TGF-β1, 72 h, compared with TAT-Y127Scr treatment",significantly increased
same,cell transduction,HUVECs [3]; 10 μM,effectively transduces cells
same,cell penetration,"HUVECs [3]; FITC-labeled peptide, approximately 5–10 μM",efficient cell penetration
same,cytotoxicity to HUVECs,HUVECs [4],low cytotoxicity
same,time to disappearance of the fluorescence signal after injection,"[5]; FITC-labeled peptide 5 nmol/g intravenously, whole-body imaging at 0, 0.5, 4, 24 h and blood samples (n = 6)",≤ 24 h
same,fluorescence in heart and lung,[5]; [8],small signal
same,fluorescence in kidney and liver,[5]; [8],strongly detected
same,fluorescence in spleen,[5]; [8],no signal
same,density of peritubular capillaries,"UUO mice; 5 nmol/g per day, CD31+ PTC numbers per visual field, n = 8",preserved density
same,number of CD31+/α-SMA+ areas in the interstitium (EndMT level),"UUO mice; 5 nmol/g per day, confocal microscopy, n = 8",dramatically decreased
same,"excessive extracellular matrix (ECM) production, α-SMA and vimentin deposition","UUO mice; 5 nmol/g per day, immunohistochemical staining, n = 8",attenuated
same,PP2Ac nitration,UUO mice; administration of the peptide,significantly reduces
TPDYFL,acetaldehyde-induced tight junction disruption and barrier dysfunction,Caco-2 Cells,prevented
same,PP2A translocation in cardiac myocytes,PP2A [6],attenuate
